The text below walks through data of patent US8022055B2, “Betulinic acid derivatives” (Dabur Pharma Limited, priority 2005, dated 2011).

Values after ≈ are worked out from the molar mass of the structure shown. A value given as a limit tells only on which side of the number the result lay.

One data set has as its system SW620. Put plainly: three day MTT cytotoxicity assay, SW620. The format is cell-based, human. The settings on record: for IC50: Homo sapiens, SW-620, SW620, 72 hours, read-out: IC50 for cell lines SW620; for IC50 for cell lines SW620: SW620, 72 hours.
For the next data set, the system named is A549. Put plainly: three day MTT cytotoxicity assay, A549. It is filed as cell-based, human. The following applies: for IC50: Homo sapiens, read-out: IC50 for cell lines A549; for IC50 / IC50 for cell lines A549: A549, 72 hours, MTT.
Another data set relates to HBL100. Put plainly: three day MTT cytotoxicity assay, HBL100. The format is cell-based, human. The settings on record: for IC50: Homo sapiens, HBL-100, read-out: IC50 for cell lines HBL100; for IC50 / IC50 for cell lines HBL100: HBL100, 72 hours, MTT.
Data set [1] is described as follows: Pharmacokinetic study after intravenous injection. The settings on record: rat, plasma.
Procedure: (§1) Blood samples were taken at various times after administration and plasma was prepared and frozen at −20° C. until analysis. The plasma sample were analyzed by a suitable HPLC method using a C-18 column. The pH of water is adjusted to 3.0 with phosphoric acid. Start the gradient with 70% acetonitrile for 5 minutes and increase the concentration up to 100% within 25 minutes followed by hold at 100% for 10 minutes. It is thus possible to construct the curve showing the plasma concentration as a function of time and to determine different pharmacokinetic parameter of compound studied.
The next data set relates to Miapaca. Put plainly: three day MTT cytotoxicity assay, Miapaca. The format is cell-based, human. The settings on record: for IC50: Homo sapiens, MIA PaCa-2, read-out: IC50 for cell lines Miapaca; for IC50 / IC50 for cell lines Miapaca: Miapaca, 72 hours, MTT. On the technique in general: Formazan colour is commonly taken as a measure of viable cells.
The subject of the next data set is DU145. Put plainly: three day MTT cytotoxicity assay, DU145. It is filed as cell-based, human. The following applies: for IC50: Homo sapiens, DU-145, DU145, 72 hours, read-out: IC50 for cell lines DU145; for IC50 for cell lines DU145: DU145, 72 hours.
Another data set concerns PA1. Put plainly: three day MTT cytotoxicity assay, PA1. It is filed as cell-based, human. The following applies: for IC50: Homo sapiens, PA-1, PA1, 72 hours, read-out: IC50 for cell lines PA1; for IC50 for cell lines PA1: PA1, 72 hours.
A further data set concerns normal cells. The following applies: literature study; cited from earlier work.
A further data set deals with K562. The data set is described as follows: three day MTT cytotoxicity assay, K562. It is filed as cell-based, human. The settings on record: for IC50 for cell lines K562: K562, 72 hours, MTT.
Another data set deals with NIH 3T3 cells. Put plainly: NIH3T3 cytotoxicity test (72 h MTT assay). The format is cell-based. The following applies: NIH3T3, 72 hours. In a few lines: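 Mouse NIH 3T3 fibroblasts exposed to a concentration range of compound for 72 hours; viable cells measured by MTT and growth inhibition calculated against untreated cultures. IC50 expressed in μg/ml; safety index is the NIH 3T3 IC50 divided by tumour-cell IC50.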

A further data set is described as follows: in vivo. The settings on record: male, Wistar, rat, iv, 10 mg/kg.
The conditions of data set [2]: rat, in vivo, iv, 10 mg/kg.
Procedure: as §1
Data set [3] concerns various cancer cell lines.
The next data set has as its system tumor. The settings on record: murine xenograft models; cited from earlier work.

Procedure for DU145: (§2) A number of compounds listed in Table-3 were tested for cytotoxicity against prostate, lung, laryngeal, pancreas, breast, colon and ovarian cancer, leukemia and lymphoma, human tumor cell lines. Briefly, a three day MTT cytotoxicity assay was performed, which is based on the principle of uptake of MTT (3-(4,5-dimethylthiazol-2-yl)-2,5-diphenyl tetrazolium bromide), a tetrazolium salt, by the metabolically active cells where it is metabolized by active mitochondria into a blue colored formazan product that is read spectrophotometrically. MIT was dissolved in phosphate buffered saline with a pH of 7.4 to obtain an MIT concentration of 5 mg/ml; the resulting mixture was filtered through a 0.22-micron filter to sterilize and remove a small amount of insoluble residue. For each type of tumor cell, 10,000 to 15,000 cells were seeded in a 96-well culture plate and incubated with the individual betulinic acid derivatives in a CO2 incubator for a total of 72 hours. Control cells not treated with the betulinic acid derivatives were similarly incubated. The assay was terminated by adding 100 μg (20 μl) of MIT to each well then incubating for additional one hour, and finally adding 50 μl of 10% SDS-0.01N HCl to each well to lyse the cells and dissolve formazan. After incubating for one hour, the plate was read spectrophotometrically at 540 nm and the percentage of cytotoxicity calculated using the following formula: Cytotoxicity percentage=100×[1−(X/R1)], where X=(absorbance of treated sample at 540 nm)−(absorbance of blank at 540 nm) R1=absorbance of control sample at 540 nm. The IC50 Values of the cytotoxicity defined as the concentration at which 50% of the cells are killed in vitro was calculated for each cell line treated with each of the betulinic acid derivatives.
Procedure for HBL100: as §2
Procedure for K562: as §2
Procedure for Miapaca: as §2
Procedure for in vivo: as §1

As to `C=C(C)[C@@H]1CC[C@]2(C(=O)O)CC[C@]3(C)[C@H](CC[C@@H]4[C@@]5(C)CC[C@H](O)C(C)(C)[C@@H]5CC[C@]43C)[C@@H]12` [Betulinic Acid (II), 33-hydroxy-lup-20(29)-en-28-oic acid, reference compound], the IC50 in the data set on SW620 is 13.3 µg/mL (≈ 29 µM); in the data set on A549, 3.01 µg/mL (≈ 6.59 µM); in the data set on HBL100, 5.02 µg/mL (≈ 11 µM); with Miapaca, greater than 20 µg/mL; with DU145 it was greater than 20 µg/mL; with PA1, 11.5 µg/mL (≈ 25.2 µM). Moreover, in data set [1] (male, Wistar, iv, 10 mg/kg), the AUC was 13900 ng·h/mL. This molecule yielded an AUC(0-t) in data set [1] (male, Wistar, iv, 10 mg/kg) of 10600 ng·h/mL. In [1] (male, Wistar, iv, 10 mg/kg), this molecule yielded a C0 of 36 µg/mL. Also, the Vd in data set [1] (male, Wistar, iv, 10 mg/kg) was 0.0416 L. The half-life in data set [1] (male, Wistar, iv, 10 mg/kg) is 0.265 h. Also, in data set [1] (10 mg/kg intravenous), the Kel is 2.60 h⁻¹. The “toxicity against normal cells” value in the data set with normal cells is “minimal toxicity against normal cells”.
Consider `C=C(C)[C@@H]1CC[C@]2(C(=O)NCC(=O)O)CC[C@]3(C)C(CCC4[C@@]5(C)Cc6c([nH]c7ccc(Cl)cc67)C(C)(C)C5CC[C@]43C)C12` (some centres unmarked) [Compound 24, 28-N-Glycine-5′-chloro-2,3-didehydroindolo[2′,3′:2,3]betulinamide], for which the “IC50 for cell lines SW620” value in the data set on SW620 was found to be 10.42 µg/mL. Further, the “IC50 for cell lines A549” value in the data set with A549 turned out to be 12.4 ± 1.78 µg/mL. The “Specific Index (SI) for cell lines A549” value with A549 (ratio of IC50 of NIH 3T3 cells to A549) is given as 0.903. The “IC50 for cell lines HBL100” value in the data set on HBL100 was found to be 16.5 ± 0.6 µg/mL. In the data set on HBL100 (ratio of IC50 of NIH 3T3 cells to HBL100), the “Specific Index (SI) for cell lines HBL100” value is listed as 0.679. Moreover, the “IC50 for cell lines K562” value with K562 was greater than 20 µg/mL. In addition, the “Specific Index (SI) for cell lines K562” value with K562 (ratio of IC50 of NIH 3T3 cells to K562) is reported as less than 0.56. Further, the “IC50 for cell lines NIH3T3” value in the data set with NIH 3T3 cells is 11.2 ± 0.63 µg/mL. The “IC50 for cell lines Miapaca” value in the data set on Miapaca stood at 10.7 ± 0.63 µg/mL. Further, the “Specific Index (SI) for cell lines Miapaca” value in the data set on Miapaca (ratio of IC50 of NIH 3T3 cells to Miapaca) is reported as 1.047. Further, the “IC50 for cell lines DU145” value in the data set with DU145 is 10.32 µg/mL. In the data set with PA1, the “IC50 for cell lines PA1” value was determined as 6.66 µg/mL.
Consider `C=C(C)[C@@H]1CC[C@]2(C(=O)Nc3ccccn3)CC[C@]3(C)C(CCC4[C@@]5(C)Cc6c([nH]c7ccc(Cl)cc67)C(C)(C)C5CC[C@]43C)C12` (some centres unmarked) [Compound 25, 28-N-(2″-pyridine)-5′-chloro-2,3-didehydroindolo[2′,′:2,3]betulinamide], for which the “IC50 for cell lines SW620” value in the data set with SW620 was greater than 20 µg/mL. Moreover, the “IC50 for cell lines A549” value in the data set with A549 is greater than 20 µg/mL. Besides, the “IC50 for cell lines HBL100” value in the data set on HBL100 was greater than 20 µg/mL. For the same molecule, the “IC50 for cell lines K562” value in the data set with K562 was greater than 20 µg/mL. Also, in the data set with NIH 3T3 cells, the “IC50 for cell lines NIH3T3” value is greater than 20 µg/mL. For the same molecule, in the data set with Miapaca, the “IC50 for cell lines Miapaca” value is greater than 20 µg/mL. In addition, the “IC50 for cell lines DU145” value in the data set with DU145 was greater than 20 µg/mL. In addition, in the data set on PA1, the “IC50 for cell lines PA1” value was greater than 20 µg/mL.
Consider `C=C(C)[C@@H]1CC[C@]2(C(=O)Nc3nccs3)CC[C@]3(C)C(CCC4[C@@]5(C)Cc6c([nH]c7ccc(Cl)cc67)C(C)(C)C5CC[C@]43C)C12` (some centres unmarked) [Compound 26, 28-N-(2″-thiazole)-5′-chloro-2,3-didehydroindolo[2′,′:2,3]betulinamide], for which the “IC50 for cell lines SW620” value in the data set on SW620 was greater than 20 µg/mL. Also, in the data set with A549, the “IC50 for cell lines A549” value is greater than 20 µg/mL. Besides, the “IC50 for cell lines HBL100” value in the data set on HBL100 is greater than 20 µg/mL. Besides, the “IC50 for cell lines K562” value in the data set on K562 is greater than 20 µg/mL. In the data set with NIH 3T3 cells, the “IC50 for cell lines NIH3T3” value was greater than 20 µg/mL. In addition, the “IC50 for cell lines Miapaca” value in the data set with Miapaca is greater than 20 µg/mL. For the same molecule, the “IC50 for cell lines DU145” value with DU145 was greater than 20 µg/mL. Besides, in the data set with PA1, the “IC50 for cell lines PA1” value was greater than 20 µg/mL.
As to `C#CCNC(=O)[C@]12CC[C@@H](C(=C)C)C1C1CCC3[C@@]4(C)Cc5c([nH]c6ccc(Cl)cc56)C(C)(C)C4CC[C@@]3(C)[C@]1(C)CC2` (some centres unmarked) [Compound 27, 28-N-Propargyl-5′-chloro-2,3-didehydroindolo[2′,′:2,3]betulinamide], in the data set with SW620, the “IC50 for cell lines SW620” value was greater than 20 µg/mL. For the same molecule, in the data set with A549, the “IC50 for cell lines A549” value is greater than 20 µg/mL. Also, the “IC50 for cell lines HBL100” value with HBL100 was greater than 20 µg/mL. For the same molecule, the “IC50 for cell lines K562” value in the data set on K562 was greater than 20 µg/mL. The “IC50 for cell lines NIH3T3” value in the data set on NIH 3T3 cells is greater than 20 µg/mL. Also, the “IC50 for cell lines Miapaca” value in the data set with Miapaca is greater than 20 µg/mL. Besides, in the data set on DU145, the “IC50 for cell lines DU145” value was greater than 20 µg/mL. Moreover, in the data set with PA1, the “IC50 for cell lines PA1” value was greater than 20 µg/mL.
Turning to `C=C(C)[C@@H]1CC[C@]2(C(=O)O)CC[C@]3(C)C(CCC4[C@@]5(C)Cc6c([nH]c7cc(Cl)cc(Cl)c67)C(C)(C)C5CC[C@]43C)C12` (some centres unmarked) [Compound 31, 2,3-Didehydro-4′,6′-dichloroindolo[2′,3′:2,3]betulinic acid], in the data set on SW620, the “IC50 for cell lines SW620” value was greater than 20 µg/mL. Besides, the “IC50 for cell lines A549” value in the data set on A549 is 5.5 µg/mL. For the same molecule, the “IC50 for cell lines HBL100” value in the data set with HBL100 was greater than 20 µg/mL. In the data set with K562, the “IC50 for cell lines K562” value was greater than 20 µg/mL. Further, the “IC50 for cell lines NIH3T3” value in the data set with NIH 3T3 cells turned out to be 4.10 µg/mL. Further, the “IC50 for cell lines Miapaca” value with Miapaca was greater than 20 µg/mL. Further, the “IC50 for cell lines DU145” value in the data set with DU145 is greater than 20 µg/mL. Besides, the “IC50 for cell lines PA1” value in the data set with PA1 is greater than 20 µg/mL.
For `C=C(C)[C@@H]1CC[C@]2(C(=O)NC3CC3)CC[C@]3(C)C(CCC4[C@@]5(C)Cc6c([nH]c7ccc(Cl)cc67)C(C)(C)C5CC[C@]43C)C12` (some centres unmarked) [Compound 34, 28-N-Cyclopropyl-5′-chloro-2,3-didehydroindolo[2′,′:2,3]betulinamide], in the data set on SW620, the “IC50 for cell lines SW620” value is greater than 20 µg/mL. Also, in the data set on A549, the “IC50 for cell lines A549” value was greater than 20 µg/mL. Also, the “IC50 for cell lines HBL100” value in the data set on HBL100 was greater than 20 µg/mL. The “IC50 for cell lines K562” value with K562 is greater than 20 µg/mL. Moreover, in the data set on NIH 3T3 cells, the “IC50 for cell lines NIH3T3” value turned out to be 1.82 µg/mL. Further, the “IC50 for cell lines Miapaca” value with Miapaca was greater than 20 µg/mL. The “IC50 for cell lines DU145” value with DU145 is greater than 20 µg/mL. Besides, in the data set on PA1, the “IC50 for cell lines PA1” value was greater than 20 µg/mL.
With `CC(C)[C@@H]1CC[C@]2(C(=O)O)CC[C@]3(C)C(CCC4[C@@]5(C)CC/C(=N/Oc6ccc([N+](=O)[O-])cc6)C(C)(C)C5CC[C@]43C)C12` (some centres unmarked) [MJ1098-RS (III)], the IC50 in the data set on SW620 was found to be 3.4 µg/mL (≈ 5.74 µM). Moreover, the IC50 with A549 came to 1.18 µg/mL (≈ 1.98 µM). For the same molecule, the IC50 in the data set on HBL100 worked out at 2.82 µg/mL (≈ 4.76 µM). In the data set “in vivo”, this molecule gave an AUC of 43600 ng·h/mL, a C0 of 101 µg/mL, a Vd of 0.0006 L and a half-life of 9.9 h. Besides, in [2], the “elimination (Kel) as compared to betulinic acid” value is “slower elimination”; the “plasma concentrations as compared to betulinic acid (II)” value is “quite high and long lasting”; the “systemic exposure (AUC0-∞) as compared to betulinic acid” value is “better systemic exposure”. Besides, the IC50 with Miapaca amounted to 3.17 µg/mL (≈ 5.35 µM). In addition, in the data set on DU145, the IC50 worked out at 0.82 µg/mL (≈ 1.38 µM). For the same molecule, the “in vitro cytotoxicity / anticancer activity (in words)” value in data set [3] was “good in vitro cytotoxicity”. In addition, the tumor reduction entry in the data set with tumor was “shows tumor reduction”. Also, the IC50 in the data set with PA1 came out at 3.63 µg/mL (≈ 6.12 µM).

In general, IC50 refers to the concentration that inhibits the measured activity by half. By AUC is commonly meant concentration integrated over time. Low values mean low exposure, high ones high exposure. In general, AUC(0-t) refers to the area under the concentration-time curve up to a stated or last time point. Low readings indicate low exposure, high ones high exposure. The term Vd denotes the apparent volume that relates the amount in the body to the concentration in plasma or blood. A higher Vd goes with extensive tissue distribution. A word on the half-life: it is the time in which the quantity being followed falls by half. Low values mean rapid decline, high ones slow decline.
